Experimental data: US20230146675A1, “PYRIMIDO[5,4-d]PYRIMIDINE DERIVATIVES AS ENT INHIBITORS FOR THE TREATMENT OF CANCERS, AND COMBINATION THEREOF WITH ADENOSINE RECEPTOR ANTAGONISTS” (ITEOS BELGIUM SA, priority 2020, published 2023)

Experiments:
Assay type in all cases: biochemical
[1] = target: T1, Human phosphodiesterase-3A (Homo sapiens, UniProt Q14432); assay: PDE3A (h) assay
T1 construct: host or cells: Sf9 cells
Protocol: (§1) The test compound (compound 72), reference compound or water (control) were added to a buffer containing 40 mM Tris/HCl (pH 7.4) and 8 mM MgCl2, 180 nM cAMP and 0.1 μCi [3H]cAMP. Thereafter, the reaction was initiated by addition of the enzyme (about 0.8 U) and the mixture was incubated for 20 min at 22° C. For basal control measurements, the enzyme was omitted from the reaction mixture. Following incubation SPA beads were added. After 30 min at 22° C. under shaking, the amount of [3H]5′AMP was quantified with a scintillation counter (MicroBeta, Perkin Elmer). The results were expressed as a percent inhibition of the control enzyme activity. The standard inhibitory reference compound was papaverine, which was tested in each experiment at several concentrations to obtain an inhibition curve from which its IC50 value was calculated. • Human phosphodiesterase-3A quantified by measuring the formation of 5′AMP from cAMP using a human recombinant enzyme expressed in Sf9 cells
(§2) The test compound (compound 72), reference compound or water (control) were added to a buffer containing 40 mM Tris/HCl (pH 7.4) and 8 mM MgCl2, 450 nM cAMP and 0.25 μCi [3H]cAMP. […] After 30 min at 22° C. under shaking, the amount of [3H]5′AMP was quantified with a scintillation counter (Topcount, Packard). The results were expressed as a percent inhibition of the control enzyme activity. […]

[2] = target: T2, Human phosphodiesterase-10A2 (Homo sapiens, UniProt Q9Y233); assay: PDE10A2 (h) assay
T2 construct: host or cells: Sf9 cells
Protocol: as §1, with “trequinsin,” for “papaverine,”, “phosphodiesterase-10A2” for “phosphodiesterase-3A”, “cells.” for “cells”
as §2, with “180” for “450”, “0.1” for “0.25”, “(MicroBeta, Perkin Elmer).” for “(Topcount, Packard).”

[3] = target: T3, Human phosphodiesterase-11A (Homo sapiens, UniProt Q9HCR9); assay: PDE11A (h) assay
T3 construct: host or cells: Sf9 cells
Protocol: The test compound (compound 72), reference compound or water (control) were added to a buffer containing 40 mM Tris/HCl (pH 7.4) and 8 mM MgCl2, 450 nM cAMP and 0.25 μCi [3H]cAMP. Thereafter, the reaction was initiated by addition of the enzyme (about 4 ng) and the mixture was incubated for 15 min at 22° C. For basal control measurements, the enzyme was omitted from the reaction mixture. Following incubation SPA beads were added. After 30 min at 22° C. under shaking, the amount of [3H]5′AMP was quantified with a scintillation counter (Topcount, Packard). The results were expressed as a percent inhibition of the control enzyme activity. The standard inhibitory reference compound was milrinone, which was tested in each experiment at several concentrations to obtain an inhibition curve from which its IC50 value was calculated. • Human phosphodiesterase-11A quantified by measuring the formation of 5′AMP from cAMP using a human recombinant enzyme expressed in Sf9 cells.
(§3) The test compound (compound 72), reference compound or water (control) were added to a buffer containing 40 mM Tris/HCl (pH 7.4) and 8 mM MgCl2, 450 nM cAMP and 0.25 μCi [3H]cAMP. […] After 30 min at 22° C. under shaking, the amount of [3H]5′AMP was quantified with a scintillation counter (MicroBeta, Perkin Elmer). The results were expressed as a percent inhibition of the control enzyme activity.

[4] = target: T4, Human phosphodiesterase-1B (Homo sapiens, UniProt Q01064); assay: PDE1B (h) assay
T4 construct: host or cells: Sf9 cells
Protocol: Method. • Human phosphodiesterase-1B quantified by measuring the formation of 5′GMP from cGMP using a human recombinant enzyme expressed in Sf9 cells
The test compound (compound 72), reference compound or water (control) were added to a buffer containing 40 mM Tris/HCl (pH 7.4), 8 mM MgCl2 0.21% BSA, 0.5 μg/ml calmoduline and 0.5 mM CaCl2), 1.125 μM cGMP and 0.027 μCi [3H]cGMP. Thereafter, the reaction was initiated by addition of the enzyme (about 0.2 U) and the mixture was incubated for 20 min at 22° C. For basal control measurements, the enzyme was omitted from the reaction mixture. Following incubation SPA beads were added. After 30 min at 22° C. under shaking, the amount of [3H]5′GMP was quantified with a scintillation counter (MicroBeta, Perkin Elmer). The results were expressed as a percent inhibition of the control enzyme activity. The standard inhibitory reference compound was Nitrendipine, which was tested in each experiment at several concentrations to obtain an inhibition curve from which its IC50 value was calculated. • Human phosphodiesterase-5 quantified by measuring the formation of 5′GMP from cGMP using an enzyme isolated from human platelets at Eurofins-Cerep.

[5] = target: T5, Human phosphodiesterase-8A1 (Homo sapiens, UniProt O60658); assay: PDE8A1 (h) assay
T5 construct: host or cells: Sf9 cells
Protocol: as §1, with “63” for “180”, “0.035” for “0.1”, “0.6” for “0.8”, “BRL50481,” for “papaverine,”, “phosphodiesterase-8A1” for “phosphodiesterase-3A”
as §3, with “180” for “450”, “0.1” for “0.25”, “activity. […]” for “activity.”

T3 sequence (Q9HCR9 whole entry): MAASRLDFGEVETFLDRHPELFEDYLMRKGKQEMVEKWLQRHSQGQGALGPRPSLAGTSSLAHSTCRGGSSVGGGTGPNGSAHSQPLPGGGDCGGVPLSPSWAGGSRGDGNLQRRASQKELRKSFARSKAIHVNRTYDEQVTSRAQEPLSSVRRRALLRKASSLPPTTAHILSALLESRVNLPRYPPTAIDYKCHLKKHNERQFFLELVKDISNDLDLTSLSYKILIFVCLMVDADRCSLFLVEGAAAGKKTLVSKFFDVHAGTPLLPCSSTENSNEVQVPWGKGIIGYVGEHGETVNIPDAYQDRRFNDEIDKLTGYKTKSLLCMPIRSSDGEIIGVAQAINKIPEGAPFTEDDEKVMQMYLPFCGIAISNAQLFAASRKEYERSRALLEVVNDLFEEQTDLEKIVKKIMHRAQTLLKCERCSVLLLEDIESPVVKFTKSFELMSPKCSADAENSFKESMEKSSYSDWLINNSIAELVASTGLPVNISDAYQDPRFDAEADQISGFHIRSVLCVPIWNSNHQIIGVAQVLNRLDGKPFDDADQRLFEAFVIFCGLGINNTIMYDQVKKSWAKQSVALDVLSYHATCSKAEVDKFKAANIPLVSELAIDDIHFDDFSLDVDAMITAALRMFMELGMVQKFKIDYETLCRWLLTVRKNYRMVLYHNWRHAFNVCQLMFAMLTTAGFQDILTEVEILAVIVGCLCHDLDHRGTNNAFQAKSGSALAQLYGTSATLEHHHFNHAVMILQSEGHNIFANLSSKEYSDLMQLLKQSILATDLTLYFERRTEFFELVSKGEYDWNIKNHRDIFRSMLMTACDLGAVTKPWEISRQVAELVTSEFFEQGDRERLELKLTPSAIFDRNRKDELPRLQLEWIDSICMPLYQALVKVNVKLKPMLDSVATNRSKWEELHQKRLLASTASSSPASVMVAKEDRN
T5 sequence (O60658 whole entry): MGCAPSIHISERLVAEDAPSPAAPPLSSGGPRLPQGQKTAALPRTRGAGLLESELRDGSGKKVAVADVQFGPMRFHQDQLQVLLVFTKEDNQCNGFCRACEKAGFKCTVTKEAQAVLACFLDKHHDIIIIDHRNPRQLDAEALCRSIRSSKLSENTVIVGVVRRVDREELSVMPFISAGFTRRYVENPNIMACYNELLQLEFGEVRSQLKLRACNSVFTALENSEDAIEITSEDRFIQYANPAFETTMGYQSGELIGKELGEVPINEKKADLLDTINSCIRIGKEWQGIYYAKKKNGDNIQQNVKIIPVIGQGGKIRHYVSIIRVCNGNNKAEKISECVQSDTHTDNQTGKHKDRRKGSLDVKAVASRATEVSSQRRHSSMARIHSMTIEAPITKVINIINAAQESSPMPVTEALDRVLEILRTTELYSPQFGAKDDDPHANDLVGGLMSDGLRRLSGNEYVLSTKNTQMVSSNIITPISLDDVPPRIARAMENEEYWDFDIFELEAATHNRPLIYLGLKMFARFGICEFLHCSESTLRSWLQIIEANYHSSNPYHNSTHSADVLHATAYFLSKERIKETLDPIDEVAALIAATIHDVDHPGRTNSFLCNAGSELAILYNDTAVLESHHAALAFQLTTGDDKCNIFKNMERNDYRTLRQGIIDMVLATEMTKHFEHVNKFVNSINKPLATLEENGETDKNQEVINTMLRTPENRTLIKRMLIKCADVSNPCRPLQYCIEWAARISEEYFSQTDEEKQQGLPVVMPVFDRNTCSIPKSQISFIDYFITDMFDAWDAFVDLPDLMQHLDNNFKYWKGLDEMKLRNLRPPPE
T1 sequence (Q14432 whole entry): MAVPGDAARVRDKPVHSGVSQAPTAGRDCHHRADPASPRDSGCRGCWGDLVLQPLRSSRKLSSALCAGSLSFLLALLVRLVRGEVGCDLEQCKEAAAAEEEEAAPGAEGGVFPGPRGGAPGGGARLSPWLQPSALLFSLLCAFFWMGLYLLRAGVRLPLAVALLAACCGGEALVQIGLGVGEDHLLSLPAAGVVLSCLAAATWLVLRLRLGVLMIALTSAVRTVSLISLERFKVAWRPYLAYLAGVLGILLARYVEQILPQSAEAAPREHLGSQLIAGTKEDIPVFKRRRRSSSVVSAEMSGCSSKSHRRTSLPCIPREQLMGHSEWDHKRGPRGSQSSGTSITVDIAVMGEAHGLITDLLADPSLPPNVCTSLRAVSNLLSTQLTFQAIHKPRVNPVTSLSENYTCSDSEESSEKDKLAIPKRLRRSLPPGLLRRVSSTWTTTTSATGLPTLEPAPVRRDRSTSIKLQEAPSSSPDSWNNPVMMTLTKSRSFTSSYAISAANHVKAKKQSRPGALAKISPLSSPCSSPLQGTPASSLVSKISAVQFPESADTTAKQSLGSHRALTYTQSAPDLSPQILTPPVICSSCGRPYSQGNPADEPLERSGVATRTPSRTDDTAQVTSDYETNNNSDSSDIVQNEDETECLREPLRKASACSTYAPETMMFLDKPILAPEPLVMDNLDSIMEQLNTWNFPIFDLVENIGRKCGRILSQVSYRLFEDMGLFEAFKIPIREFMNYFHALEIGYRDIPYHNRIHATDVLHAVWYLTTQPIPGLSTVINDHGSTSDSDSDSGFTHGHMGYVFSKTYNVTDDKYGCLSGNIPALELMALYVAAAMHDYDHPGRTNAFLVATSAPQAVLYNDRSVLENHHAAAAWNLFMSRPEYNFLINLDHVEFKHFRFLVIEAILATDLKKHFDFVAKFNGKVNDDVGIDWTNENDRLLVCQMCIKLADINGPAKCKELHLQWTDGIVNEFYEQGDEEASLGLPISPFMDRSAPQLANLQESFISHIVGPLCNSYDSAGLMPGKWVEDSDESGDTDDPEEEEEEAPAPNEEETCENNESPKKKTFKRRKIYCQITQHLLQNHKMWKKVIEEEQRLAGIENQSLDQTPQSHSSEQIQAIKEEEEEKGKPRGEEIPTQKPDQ
T2 sequence (Q9Y233 267-1055): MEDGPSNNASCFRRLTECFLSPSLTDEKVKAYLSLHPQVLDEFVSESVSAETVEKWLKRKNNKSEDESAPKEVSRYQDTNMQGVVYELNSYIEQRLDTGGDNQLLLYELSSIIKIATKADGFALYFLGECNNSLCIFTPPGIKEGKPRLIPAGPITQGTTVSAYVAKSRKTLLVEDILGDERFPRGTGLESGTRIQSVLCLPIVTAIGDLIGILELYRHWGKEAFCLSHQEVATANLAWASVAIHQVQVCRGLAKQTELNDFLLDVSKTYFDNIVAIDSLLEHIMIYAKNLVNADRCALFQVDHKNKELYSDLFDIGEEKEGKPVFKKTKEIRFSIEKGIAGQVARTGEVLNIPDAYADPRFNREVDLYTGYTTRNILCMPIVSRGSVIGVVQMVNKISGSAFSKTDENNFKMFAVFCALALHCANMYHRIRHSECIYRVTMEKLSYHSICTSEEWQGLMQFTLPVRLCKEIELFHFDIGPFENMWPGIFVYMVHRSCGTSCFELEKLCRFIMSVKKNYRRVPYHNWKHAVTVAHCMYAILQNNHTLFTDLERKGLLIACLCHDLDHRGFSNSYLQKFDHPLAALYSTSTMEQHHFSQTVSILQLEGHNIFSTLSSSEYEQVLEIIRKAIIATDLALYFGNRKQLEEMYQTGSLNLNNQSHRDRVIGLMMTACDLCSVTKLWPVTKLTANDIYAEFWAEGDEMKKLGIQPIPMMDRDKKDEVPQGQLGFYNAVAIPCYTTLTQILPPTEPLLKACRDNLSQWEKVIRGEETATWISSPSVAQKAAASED

For `COCCN(CCOC)c1nc(N2CCN(C)C(=O)C2)c2nc(N(CCOC)CCOC)nc(N3CCC(OC)CC3)c2n1` [Compound 72, 4-(2,6-bis(bis(2-methoxyethyl)amino)-8-(4-methoxypiperidin-1-yl)pyrimido[5,4-d]pyrimidin-4-yl)-1-methylpiperazin-2-one], the IC50 [1] was greater than 10 µM, the IC50 [2] was 1 to 10 µM and the IC50 [3] was greater than 10 µM. For the same compound, the “potency for PDE11A as compared to dipyridamole” value [3] was “reduced as compared to dipyridamole”, the IC50 [4] was greater than 10 µM and the IC50 [5] was greater than 10 µM.
